Bounds are passed on as bounds.

Data set [1] relates to HCT-116 cells. The experiment in a line: SRB cytotoxicity assay, HCT-116. The class given is cell-based, human. To be noted: SRB assay, 72 h exposure, ± SEM. The procedure:
Compounds in this study were tested against colorectal cancer cell line HCT-116, using sulforhodamine-B (SRB) assay. See Skehan, P.; Storeng, R.; Scudiero, D.; Monks, A.; McMahon, J.; Vistica, D.; Warren, J. T.; Bokesch, H.; Kenney, S.; Boyd, M. R., New colorimetric cytotoxicity assay for anticancer-drug screening. J Natl Cancer Inst 1990, 82 (13), 1107-12, incorporated herein by reference in its entirety. […] However, it was clear that compounds bearing hydrophobic aliphatic groups such as MOS-1505 and MOS-1512 are clearly favored in providing anticancer activities. […] The N-aryl substituents were less advantageous in both potency and solubility.
(§1) Different cell lines were originally purchased from American type culture collection (ATCC, Wesel, Germany) and grown in the tissue culture lab of the Egyptian company for production of vaccines, sera and drugs (Vacsera, Giza, Egypt). The cells were transferred to our laboratory and maintained in the appropriate media as following. HCT-116, CACO-2, and HT-29 (human colon cancer cell lines) were maintained in Roswell Park Memorial Institute medium (RPMI1640) (Invitrogen, Carlsbad, Calif.). The mouse skin fibroblasts (C-166) and Baby Hamster Kidney fibroblasts (BHK) were grown in Dulbecco Modified Eagle's medium (DMEM). Both media were supplemented with 1% of […] of streptomycin, 100 units/mL of penicillin and 10% of heat-inactivated fetal bovine serum (Invitrogen, Carlsbad, Calif.) in a humidified, 5% (v/v) CO2 atmosphere at 37° C.
(§2) The sulforhodamine B (SRB) assays were performed according to Skehan, P.; Storeng, R.; Scudiero, D.; Monks, A.; McMahon, J.; Vistica, D.; Warren, J. T.; Bokesch, H.; Kenney, S.; Boyd, M. R., New colorimetric cytotoxicity assay for anticancer-drug screening. J Natl Cancer Inst 1990, 82 (13), 1107-12, incorporated herein by reference in its entirety. Briefly, exponentially growing cells were trypsinized, counted and seeded at the appropriate densities (5000 cells/100 μL/well) into 96-well microtiter plates. Cells were incubated in a humidified atmosphere at 37° C. for 24 h. Then, the cells were exposed to different compounds at the desired concentrations, (0.01, 0.1, 1, 10, and 100 μM) or to 1% dimethyl sulfoxide (DMSO) for 72 h. At the end of the treatment period, the media were removed, and the cells were fixed with 10% trichloroacetic acid at 4° C. for 1 hr. Following, the cells were washed with tap water four times and incubated with SRB 0.4% for 30 min. Excess dye was removed by washing repeatedly with 1% (vol/vol) acetic acid. The protein-bound dye was dissolved in 10 mM Tris base solution for (optical density) OD determination at 510 nm using a SpectraMax plus Microplate Reader (Molecular Devices, CA). Cell viability was expressed relative to the untreated control cells.

Data set [2] can be described thus: Solubility profile. The format is physicochemical. To be noted: stated in words together with C log P.
In data set [3] the test system is CACO-2 cells. As to the kind of experiment: SRB cytotoxicity assay, CACO-2. The class given is cell-based, human. The note with it: ± SEM.
Description: (§3) Based on the favorable pharmacologic and physicochemical properties of MOS-1512, it was selected as a new lead for the second subset of compounds (MOS-1812 to MOS-5112). The compounds in this series contained variable groups at R^1 and R^2 that were all tested against the three cancer cell lines (HCT-116, Caco-2 and HT-29).
as §1, §2
Background: In SRB staining, fixed cells bind dye roughly in proportion to their protein.

Data set [4] concerns HT-29 cells. As to the kind of experiment: SRB cytotoxicity assay, HT-29. The format is cell-based, human. The note with it: 72 h exposure, ± SEM.
Description: as §3, §1, §2

In data set [5] the test system is CRC cell lines (HCT-116, Caco-2 and HT-29). The experiment in a line: Cytotoxic activities against CRC cell lines (statement over three lines). To be noted: Homo sapiens. The format is cell-based.
Description: as §3, §1, §2

Setting [6] is: Homo sapiens, Caco-2, 72 h exposure.

As for `CCOC(=O)/C(=C/c1ccccc1)NC(=O)C=Cc1ccccc1` [Compound 15EE, Ethyl (Z)-2-cinnamamido-3-phenylacrylate], the melting point (usually the temperature, or range, at which the solid turns liquid) was 153 °C.

`O=C(C=Cc1ccccc1)N/C(=C\c1ccccc1)C(=O)NC1CCCC1` [Compound 1503, (Z)-2-cinnamamido-N-cyclopentyl-3-phenylacrylamide] showed a melting point of 239 °C. The IC50 (as a rule, the concentration that gives 50% inhibition) in data set [1] (Homo sapiens, HCT-116) is 48.5 ± 3.1 µM.

For `O=C(C=Cc1ccccc1)N/C(=C\c1ccccc1)C(=O)NC12CC3CC(CC(C3)C1)C2` [Compound 1505, (Z)—N-(1-adamantanyl)-2-cinnamamido-3-phenylacrylamide], the 50% inhibitory concentration (IC50) in data set [1] (Homo sapiens, HCT-116) is 14.7 ± 0.3 µM. The solubility result in data set [2] is “poor solubility”.

On to `O=C(/C=C/c1ccccc1)N/C(=C\c1ccccc1)C(=O)Nc1cccnc1` [Compound 1507, (Z)-2-[(E)-cinnamamido]-3-phenyl-N-(3-pyridyl)acrylamide], for which the melting point is > 250 °C (dec.). The IC50 in data set [1] (Homo sapiens, HCT-116) is greater than 100 µM.

In the case of `O=C(/C=C/c1ccccc1)N/C(=C\c1ccccc1)C(=O)NCCO` [Compound 1532, (Z)-2-[(E)-cinnamamido]-N-(2-hydroxyethyl)-3-phenyl-acrylamide], the melting point came out at 204 °C. Besides, in data set [1] (Homo sapiens, HCT-116), the IC50 is greater than 100 µM.

Regarding `CCCNC(=O)/C(=C/c1ccc(F)cc1)NC(=O)/C=C/c1ccc(Cl)cc1` [Compound 2312, (Z)-2-[(E)-3-(4-chlorophenyl)acrylamido]-3-(4-fluorophenyl)-N-propylacrylamide], the half-inhibitory concentration (IC50) in data set [1] (Homo sapiens, HCT-116) was 3.8 ± 0.24 µM; in data set [3] (setting [6]) it was 2.6 ± 0.233 µM; in data set [4] (Homo sapiens, HT-29, monolayer), 4 ± 0.14 µM; in data set [5], less than 5 µM.

As for `CCCNC(=O)/C(=C/c1ccc(N(C)C)cc1)NC(=O)/C=C/c1ccc(Cl)cc1` [Compound 2812, (Z)-2-[(E)-3-(4-chlorophenyl)acrylamido]-3-[4-(dimethylamino)phenyl]-N-propylacrylamide], the IC50 in data set [1] (Homo sapiens, HCT-116) is 20.7 ± 0.32 µM; in data set [3] (setting [6]), 17 ± 0.8 µM; in data set [4] (Homo sapiens, HT-29, monolayer), 9.52 ± 0.42 µM; in data set [5] it was less than 5 µM.

`CCCNC(=O)/C(=C/c1ccc(O)c(OC)c1)NC(=O)/C=C/c1ccc(C)cc1` [Compound 3512, (Z)-3-(4-hydroxy-3-methoxyphenyl)-N-propyl-2-[(E)-3-(p-tolyl)acrylamidolacry]amide]: the IC50 in data set [1] amounted to 26.3 ± 1.3 µM; in data set [3] (72 h exposure) it was 20.9 ± 1.1 µM; in data set [4] (monolayer) it was 15.1 ± 0.67 µM.

On to `CCCNC(=O)/C(=C/c1ccc(O)c(OC)c1)NC(=O)/C=C/c1cccs1` [Compound 3612, (Z)-3-(4-hydroxy-3-methoxyphenyl)-N-propyl-2-[(E)-3-(thien-2-yl)acrylamidolacry]amide], for which the IC50 in data set [1] was determined as 24.8 ± 1.4 µM; in data set [3] (72 h exposure), 28.3 ± 1.3 µM; in data set [4] (monolayer), 48.3 ± 1.9 µM.

Turning to `CCCNC(=O)/C(=C/c1c[nH]c2ccccc12)NC(=O)/C=C/c1ccc(Cl)cc1` [Compound 3812, (Z)-2-[(E)-3-(4-chlorophenyl)acrylamido]-3-(1H-indol-3-yl)-N-propylacrylamide], the 50% inhibitory concentration (IC50) in data set [1] (Homo sapiens, HCT-116) is 3.51 ± 0.21 µM; in data set [3] (setting [6]), 3.35 ± 0.05 µM; in data set [4] (Homo sapiens, HT-29, monolayer), 3.41 ± 0.03 µM; in data set [5] it was less than 5 µM.

In the case of `CCCNC(=O)/C(=C/c1c[nH]c2ccccc12)NC(=O)/C=C/c1ccc(OC)cc1` [Compound 3912, (Z)-3-(1H-indol-3-yl)-2-[(E)-3-(4-methoxyphenyl)acrylamido]-N-propylacrylamide], the IC50 in data set [1] (Homo sapiens, HCT-116) is 4.35 ± 0.29 µM; in data set [3] (setting [6]), 2.07 ± 0.03 µM; in data set [4] (Homo sapiens, HT-29, monolayer), 2.49 ± 0.04 µM; in data set [5] it was less than 5 µM.

Regarding `CCCNC(=O)/C(=C/c1c[nH]c2ccccc12)NC(=O)/C=C/c1ccc(C)cc1` [Compound 4012, (Z)-3-(1H-indol-3-yl)-N-propyl-2-[(E)-3-(p-tolyl)acrylamidolacry]amide], the half-maximal inhibitory concentration (IC50) in data set [1] was found to be 3.39 ± 0.1 µM; in data set [3] (72 h exposure), 2.3 ± 0.08 µM; in data set [4] (monolayer) it was 3.12 ± 0.06 µM.

As to `CCCNC(=O)/C(=C/c1cccnc1)NC(=O)C=Cc1ccccc1` [Compound 4212, (Z)-2-cinnamamido-N-propyl-3-(pyridin-3-yl)acrylamide], the half-inhibitory concentration (IC50) is 73 ± 2.5 µM in data set [1] (Homo sapiens, HCT-116); 66 ± 2.2 µM in data set [3] (setting [6]); greater than 100 µM in data set [4] (Homo sapiens, HT-29, monolayer).

As to `CCCNC(=O)/C(=C/c1cccnc1)NC(=O)/C=C/c1ccc(Cl)cc1` [Compound 4312, (Z)-2-[(E)-3-(4-chlorophenyl)acrylamido]-N-propyl-3-(pyridin-3-yl)acrylamide], the half-maximal inhibitory concentration (IC50) in data set [1] (Homo sapiens, HCT-116) is 49.4 ± 1.9 µM; in data set [3] (setting [6]) it was 47.3 ± 1.9 µM; in data set [4] (Homo sapiens, HT-29, monolayer), 36 ± 1.7 µM.

In the case of `CCCNC(=O)/C(=C/c1cccnc1)NC(=O)/C=C/c1ccc(OC)cc1` [Compound 4412, (Z)-2-[(E)-3-(4-methoxyphenyl)acrylamido]-N-propyl-3-(pyridin-3-yl)acrylamide], the concentration for half-maximal inhibition (IC50) amounted to 52.1 ± 1.6 µM in data set [1] (Homo sapiens, HCT-116); 38.1 ± 2 µM in data set [3] (setting [6]); 72.7 ± 6.4 µM in data set [4] (Homo sapiens, HT-29, monolayer).

For `CCCNC(=O)/C(=C/c1cccnc1)NC(=O)/C=C/c1ccc(C)cc1` [Compound 4512, (Z)—N-propyl-3-(pyridin-3-yl)-2-[(E)-3-(p-tolyl)acrylamidolacry]amide], the IC50 in data set [1] is greater than 100 µM; in data set [3] (72 h exposure), 27 ± 1.8 µM; in data set [4] (monolayer), greater than 100 µM.

As to `CCCNC(=O)/C(=C/c1cccnc1)NC(=O)/C=C/c1cccs1` [Compound 4612, (Z)—N-propyl-3-(pyridin-3-yl)-2-[(E)-3-(thien-2-yl)acrylamidolacry]amide], the results for the IC50 in data set [1], in data set [3] (72 h exposure) and in data set [4] (monolayer) were greater than 100 µM, 41.8 ± 1.4 µM and 68.8 ± 6.9 µM, respectively.

`CCCNC(=O)/C(=C/c1ccc([N+](=O)[O-])cc1)NC(=O)C=Cc1ccccc1` [Compound 4712, (Z)-2-cinnamamido-3-(4-nitrophenyl)-N-propylacrylamide]: the concentration for half-maximal inhibition (IC50) in data set [1] (Homo sapiens, HCT-116) worked out at 17.3 ± 1.3 µM; in data set [3] (setting [6]), 44.2 ± 2.7 µM; in data set [4] (Homo sapiens, HT-29, monolayer) it was 23.2 ± 1.9 µM.

As to `CCCNC(=O)/C(=C/c1ccc([N+](=O)[O-])cc1)NC(=O)/C=C/c1ccc(Cl)cc1` [Compound 4812, (Z)-2-[(E)-3-(4-chlorophenyl)acrylamido]-3-(4-nitrophenyl)-N-propylacrylamide], the IC50 is greater than 100 µM in data set [1] (Homo sapiens, HCT-116); greater than 100 µM in data set [3] (setting [6]); 36.9 ± 1.5 µM in data set [4] (Homo sapiens, HT-29, monolayer).

For the molecule `CCCNC(=O)/C(=C/c1ccc([N+](=O)[O-])cc1)NC(=O)/C=C/c1ccc(OC)cc1` [Compound 4912, (Z)-2-[(E)-3-(4-methoxyphenyl)acrylamido]-3-(4-nitrophenyl)-N-propylacrylamide], the 50% inhibitory concentration (IC50) was greater than 100 µM in data set [1] (Homo sapiens, HCT-116); greater than 100 µM in data set [3] (setting [6]); 74.3 ± 3.6 µM in data set [4] (Homo sapiens, HT-29, monolayer).

Regarding `CCCNC(=O)/C(=C/c1ccc([N+](=O)[O-])cc1)NC(=O)/C=C/c1ccc(C)cc1` [Compound 5012, (Z)-3-(4-nitrophenyl)-N-propyl-2-[(E)-3-(p-tolyl)acrylamidolacry]amide], the IC50 in data set [1], in data set [3] (72 h exposure) and in data set [4] (monolayer) was greater than 100 µM throughout.

`CCCNC(=O)/C(=C/c1ccc([N+](=O)[O-])cc1)NC(=O)/C=C/c1cccs1` [Compound 5112, (Z)-3-(4-nitrophenyl)-N-propyl-2-[(E)-3-(thien-2-yl)acrylamidolacry]amide]: the half-inhibitory concentration (IC50) in data set [1] was greater than 100 µM; in data set [3] (72 h exposure) it was 34.2 ± 1.1 µM; in data set [4] (monolayer), greater than 100 µM.

In the case of `COc1cccc2c1C(=O)c1c(O)c3c(c(O)c1C2=O)C[C@@](O)(C(=O)CO)C[C@@H]3O[C@H]1C[C@H](N)[C@H](O)[C@H](C)O1` [Doxo, doxorubicin, reference compound], the concentration for half-maximal inhibition (IC50) in data set [1] (Homo sapiens, HCT-116) is 0.6 ± 0.1 µM; in data set [3] (setting [6]) it was 0.14 ± 0.05 µM; in data set [4] (Homo sapiens, HT-29, monolayer), 0.3 ± 0.01 µM.

For the origin of these results see patent publication US11214556B1, “Method of treating colorectal cancer” (King Abdulaziz University, priority 2019, dated 2022).
